# Assay results reported in PubChem BioAssay (NCI).
# Values joined by “and” are separate entries in the source; they are usually repeats but may differ in a detail not shown here. Equal entries are not always repeated.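 Each compound was tested at five concentrations against cells in 96-well plates for 48 hours. Abbreviation: GI50, concentration required for 50% inhibition of growth. TGI denotes the concentration required for complete inhibition of growth.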
# Experiments:
# Test in all cases: inhibition of tumour cell growth, NCI panel, 48 h
# [1] = tested on: 786-0 renal
# [2] = tested on: A498 renal
# [3] = tested on: A549 NSCLC
# [4] = tested on: ACHN renal
# [5] = tested on: CAKI-1 renal
# [6] = tested on: CCRF-CEM leukemia
# [7] = tested on: COLO 205 colon
# [8] = tested on: DLD-1 colon
# [9] = tested on: DMS 273 small cell lung
# [10] = tested on: EKVX NSCLC
# [11] = tested on: HCC-2998 colon
# [12] = tested on: HCT-116 colon
# [13] = tested on: HCT-15 colon
# [14] = tested on: HL-60(TB) leukemia
# [15] = tested on: HOP-18 NSCLC
# [16] = tested on: HOP-62 NSCLC
# [17] = tested on: HOP-92 NSCLC
# [18] = tested on: IGROV1 ovarian
# [19] = tested on: K-562 leukemia
# [20] = tested on: KM12 colon
# [21] = tested on: KM20L2 colon
# [22] = tested on: LOX IMVI melanoma
# [23] = tested on: LXFL 529 NSCLC
# [24] = tested on: M14 melanoma
# [25] = tested on: M19-MEL melanoma
# [26] = tested on: MALME-3M melanoma
# [27] = tested on: MOLT-4 leukemia
# [28] = tested on: NCI-H23 lung
# [29] = tested on: NCI-H460 lung
# [30] = tested on: OVCAR-3 ovarian
# [31] = tested on: OVCAR-4 ovarian
# [32] = tested on: OVCAR-5 ovarian
# [33] = tested on: OVCAR-8 ovarian
# [34] = tested on: RPMI-8226 leukemia
# [35] = tested on: RXF-631 renal
# [36] = tested on: SF-268 CNS
# [37] = tested on: SF-295 CNS
# [38] = tested on: SF-539 CNS
# [39] = tested on: SK-MEL-2 melanoma
# [40] = tested on: SK-MEL-28 melanoma
# [41] = tested on: SK-MEL-5 melanoma
# [42] = tested on: SK-OV-3 ovarian
# [43] = tested on: SN12C renal
# [44] = tested on: SNB-19 CNS
# [45] = tested on: SNB-78 CNS
# [46] = tested on: SW-620 colon
# [47] = tested on: TK-10 renal
# [48] = tested on: U251 CNS
# [49] = tested on: UACC-257 melanoma
# [50] = tested on: UACC-62 melanoma
# [51] = tested on: XF 498 CNS
# [52] = tested on: BT-549 breast
# [53] = tested on: DU-145 prostate
# [54] = tested on: HS 578T breast
# [55] = tested on: HT29 colon
# [56] = tested on: MCF7 breast
# [57] = tested on: MDA-MB-231 breast
# [58] = tested on: MDA-MB-435
# [59] = tested on: MDA-N
# [60] = tested on: NCI-H226 lung
# [61] = tested on: NCI-H522 lung
# [62] = tested on: NCI/ADR-RES ovarian
# [63] = tested on: PC-3 prostate
# [64] = tested on: RXF 393 renal
# [65] = tested on: SNB-75 CNS
# [66] = tested on: SR leukemia
# [67] = tested on: T-47D breast
# [68] = tested on: UO-31 renal
smiles,measurement,setting,value
O=C(NCCCOC(=O)CCCCCCCCC(=O)OCCCNC(=O)NC(=O)c1c[nH]c(=O)[nH]c1=O)NC(=O)c1c[nH]c(=O)[nH]c1=O,TGI,[1],> 100 µM
same,TGI,[2],> 100 µM
same,TGI,[3],> 100 µM
same,TGI,[4],> 100 µM
same,TGI,[5],> 100 µM
same,TGI,[6],> 100 µM
same,TGI,[7],> 100 µM
same,TGI,[8],> 100 µM
same,TGI,[9],> 100 µM
same,TGI,[10],> 100 µM
same,TGI,[11],> 100 µM
same,TGI,[12],> 100 µM
same,TGI,[13],> 100 µM
same,TGI,[14],> 100 µM
same,TGI,[15],> 100 µM
same,TGI,[16],> 100 µM
same,TGI,[17],> 100 µM
same,TGI,[18],> 100 µM
same,TGI,[19],> 100 µM
same,TGI,[20],> 100 µM
same,TGI,[21],> 100 µM
same,TGI,[22],> 100 µM
same,TGI,[23],> 100 µM
same,TGI,[24],> 100 µM
same,TGI,[25],> 100 µM
same,TGI,[26],> 100 µM
same,TGI,[27],> 100 µM
same,TGI,[28],> 100 µM
same,TGI,[29],> 100 µM
same,TGI,[30],> 100 µM
same,TGI,[31],> 100 µM
same,TGI,[32],> 100 µM
same,TGI,[33],> 100 µM
same,TGI,[34],> 100 µM
same,TGI,[35],> 100 µM
same,TGI,[36],> 100 µM
same,TGI,[37],> 100 µM
same,TGI,[38],> 100 µM
same,TGI,[39],> 100 µM
same,TGI,[40],> 100 µM
same,TGI,[41],> 100 µM
same,TGI,[42],> 100 µM
same,TGI,[43],> 100 µM
same,TGI,[44],> 100 µM
same,TGI,[45],> 100 µM
same,TGI,[46],> 100 µM
same,TGI,[47],> 100 µM
same,TGI,[48],> 100 µM
same,TGI,[49],> 100 µM
same,TGI,[50],> 100 µM
same,TGI,[51],> 100 µM
CC(=O)c1c(-c2cccc3ccccc23)c(C#N)c(=S)n(C2OC(CO)C(O)C(O)C2O)c1C (centres undefined),TGI,[1],> 100 µM
same,TGI,[2],> 100 µM
same,TGI,[3],> 100 µM
same,TGI,[4],> 100 µM
same,TGI,[52],> 100 µM
same,TGI,[5],> 100 µM
same,TGI,[6],> 100 µM
same,TGI,[7],> 100 µM
same,TGI,[53],> 100 µM
same,TGI,[10],32.4 µM
same,TGI,[11],> 100 µM
same,TGI,[12],> 100 µM
same,TGI,[13],> 100 µM
same,GI50,[14],> 100 µM and 42.1 µM
same,TGI,[14],> 100 µM
same,TGI,[16],> 100 µM
same,TGI,[17],> 100 µM
same,TGI,[54],> 100 µM
same,TGI,[55],> 100 µM
same,TGI,[18],> 100 µM
same,TGI,[19],> 100 µM
same,TGI,[20],> 100 µM
same,TGI,[22],> 100 µM
same,GI50,[24],> 100 µM and 42.6 µM
same,TGI,[24],> 100 µM
same,GI50,[26],> 100 µM
same,TGI,[26],> 100 µM
same,TGI,[56],> 100 µM
same,GI50,[57],> 100 µM and 37.5 µM
same,TGI,[57],> 100 µM
same,GI50,[58],> 100 µM and 46.9 µM
same,TGI,[58],> 100 µM
same,TGI,[59],> 100 µM
same,TGI,[27],> 100 µM
same,TGI,[60],> 100 µM
same,TGI,[28],> 100 µM
same,TGI,[29],> 100 µM
same,TGI,[61],> 100 µM
same,TGI,[62],> 100 µM
same,TGI,[30],> 100 µM
same,TGI,[31],> 100 µM
same,TGI,[32],> 100 µM
same,TGI,[33],> 100 µM
same,TGI,[63],> 100 µM
same,TGI,[34],> 100 µM
same,TGI,[64],> 100 µM
same,TGI,[36],> 100 µM
same,TGI,[37],> 100 µM
same,GI50,[38],> 100 µM and 39.6 µM
same,TGI,[38],> 100 µM
same,TGI,[39],> 100 µM
same,TGI,[40],> 100 µM
same,TGI,[41],> 100 µM
same,TGI,[42],> 100 µM
same,TGI,[43],> 100 µM
same,TGI,[44],> 100 µM
same,TGI,[65],> 100 µM
same,GI50,[66],> 100 µM and 33.6 µM
same,TGI,[66],> 100 µM
same,TGI,[46],> 100 µM
same,GI50,[67],> 100 µM and 27.3 µM
same,TGI,[67],> 100 µM
same,TGI,[47],> 100 µM
same,GI50,[48],> 100 µM and 48.9 µM
same,TGI,[48],> 100 µM
same,TGI,[49],> 100 µM
same,TGI,[50],> 100 µM
same,TGI,[68],> 100 µM
